{
  "source": "patent US12577522B2",
  "about": "“System and method for screening therapeutic agents” (Carnegie Mellon University, priority 2020, dated 2026)",
  "key": {"[1]": {"test_system": "MDA-MB-231 human breast cancer cell line mouse xenografts (tumor fragments)", "experiment": "3D ECM microsystem (collagen tumor-on-a-chip): tumor fragment drug screening, live/dead viability and COMPUSYN combination index", "format": "cell-based", "conditions": "three days"}, "[2]": {"test_system": "MDA-MB-231 human breast cancer cell line mouse xenografts (tumor fragments)", "experiment": "2D 96-well plate control: tumor fragment drug screening, live/dead viability and COMPUSYN combination index", "format": "cell-based", "conditions": "2D 96-well control, three days, drug refreshed every 12 h"}, "MDA-MB-231 cell": {"test_system": "MDA-MB-231 cell", "conditions": "previously reported; cited from earlier work"}, "[3]": {"experiment": "Drug gradient characterization in 3D collagen scaffold by confocal microscopy", "format": "physicochemical", "conditions": "confocal fluorescence; doxorubicin after 24 h, left to right channel"}},
  "data": [
    {"smiles": "COc1cccc2c1C(=O)c1c(O)c3c(c(O)c1C2=O)C[C@@](O)(C(=O)CO)C[C@@H]3O[C@H]1C[C@H](N)[C@H](O)[C@H](C)O1", "note": "[doxorubicin]", "values": [
      {"measurement": "tumor viability (live/dead staining)", "setting": "[1]; 3D ECM microsystem, drug replenished every 12 h", "value": "dose-dependent decrease in viability"},
      {"measurement": "viability in 3D ECM microsystem relative to 2D controls", "setting": "[1]; doses in 2D matched to 48 h simulated concentration", "value": "lower viability compared to 2D controls"},
      {"measurement": "tumor viability (live/dead staining)", "setting": "[2]", "value": "dose-dependent decrease in viability"},
      {"measurement": "median effect dose (Dm)", "setting": "MDA-MB-231 cell", "value": "much lower than 4-hydroxycyclophosphamide"},
      {"measurement": "diffusion profile in 3D collagen scaffold", "setting": "[3]", "value": "approximately linear concentration profile"}
    ]}
  ]
}
